Data: patent US11697648B2, “Fused pyrimidine pyridinone compounds as JAK inhibitors” (THERAVANCE BIOPHARMA R&D IP, LLC, priority 2019, dated 2023)

Test system: IL-2 stimulated STAT5 phosphorylation in Tall-1 human T cell line (JAK3)
Assay: Cellular JAK3 potency assay: inhibition of IL-2 stimulated pSTAT5 in Tall-1 T cells
Assay type: cell-based
Conditions: IL-2 stimulated pSTAT5, Tall-1 T cells
How it was run: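 Tall-1 cells, 45,000 per well, preincubated 1 hour with compound at 37 °C, then stimulated 30 minutes with IL-2 at 300 ng/ml final. pSTAT5 (Tyr694/699) in lysates quantified by AlphaLISA SureFire Ultra. pIC50 derived from inhibition curves, given as mean with SD.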

SMILES | Tall-1 (pIC50)
C=CC(=O)N1CCN(CCn2c(=O)ccc3cnc(Nc4ccc(N5CCN(S(=O)(=O)CCOC)CC5)cc4)nc32)[C@@H](CC)C1 [Example 191] | B (B represents a pC50 value between 6.7 (included) and 7.5 (IC50 between 200 nM and 32 nM))
C=CC(=O)N1CCN(CCn2c(=O)ccc3cnc(Nc4ccc(N5CCN(C(=O)CCSC)CC5)cc4)nc32)[C@@H](CC)C1 [Example 192] | B (B represents a pC50 value between 6.7 (included) and 7.5 (IC50 between 200 nM and 32 nM))
C=CC(=O)N1CCN(CCn2c(=O)ccc3cnc(Nc4ccc(N5CCN(C)CC5)cc4)nc32)[C@@H](CO)C1 [Example 193] | B (B represents a pC50 value between 6.7 (included) and 7.5 (IC50 between 200 nM and 32 nM))
C=CC(=O)N1CCN(CCn2c(=O)ccc3cnc(Nc4cnn(Cc5ccccc5)c4)nc32)[C@@H](CC)C1 [Example 194] | B (B represents a pC50 value between 6.7 (included) and 7.5 (IC50 between 200 nM and 32 nM))
C=CC(=O)N1CCN(CCn2c(=O)ccc3cnc(Nc4cnn(C5CCN(C)CC5)c4)nc32)[C@@H](CC)C1 [Example 196] | B (B represents a pC50 value between 6.7 (included) and 7.5 (IC50 between 200 nM and 32 nM))
C=CC(=O)N1CCN(CCn2c(=O)ccc3cnc(Nc4cnn(C5CCOCC5)c4)nc32)[C@@H](CC)C1 [Example 197] | B (B represents a pC50 value between 6.7 (included) and 7.5 (IC50 between 200 nM and 32 nM))

Molecular target: JAK2 (Homo sapiens (Human), UniProt O60674)
Assay: Biochemical JAK2 kinase assay (LanthaScreen)
Conditions: not given
How it was run: (§1)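 GST-JAK + GFP-STAT1 peptide, HEPES pH 7.5/MgCl2/EGTA/Brij-35 buffer; cpd preincubation 1 h RT; ATP start, 1 h RT; stop with 10 mM EDTA + 2 nM Tb-anti-pSTAT1; TR-FRET 520/495. 4-parameter IC50 → pKi (Cheng-Prusoff).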

Sequence of JAK2 (O60674 whole entry): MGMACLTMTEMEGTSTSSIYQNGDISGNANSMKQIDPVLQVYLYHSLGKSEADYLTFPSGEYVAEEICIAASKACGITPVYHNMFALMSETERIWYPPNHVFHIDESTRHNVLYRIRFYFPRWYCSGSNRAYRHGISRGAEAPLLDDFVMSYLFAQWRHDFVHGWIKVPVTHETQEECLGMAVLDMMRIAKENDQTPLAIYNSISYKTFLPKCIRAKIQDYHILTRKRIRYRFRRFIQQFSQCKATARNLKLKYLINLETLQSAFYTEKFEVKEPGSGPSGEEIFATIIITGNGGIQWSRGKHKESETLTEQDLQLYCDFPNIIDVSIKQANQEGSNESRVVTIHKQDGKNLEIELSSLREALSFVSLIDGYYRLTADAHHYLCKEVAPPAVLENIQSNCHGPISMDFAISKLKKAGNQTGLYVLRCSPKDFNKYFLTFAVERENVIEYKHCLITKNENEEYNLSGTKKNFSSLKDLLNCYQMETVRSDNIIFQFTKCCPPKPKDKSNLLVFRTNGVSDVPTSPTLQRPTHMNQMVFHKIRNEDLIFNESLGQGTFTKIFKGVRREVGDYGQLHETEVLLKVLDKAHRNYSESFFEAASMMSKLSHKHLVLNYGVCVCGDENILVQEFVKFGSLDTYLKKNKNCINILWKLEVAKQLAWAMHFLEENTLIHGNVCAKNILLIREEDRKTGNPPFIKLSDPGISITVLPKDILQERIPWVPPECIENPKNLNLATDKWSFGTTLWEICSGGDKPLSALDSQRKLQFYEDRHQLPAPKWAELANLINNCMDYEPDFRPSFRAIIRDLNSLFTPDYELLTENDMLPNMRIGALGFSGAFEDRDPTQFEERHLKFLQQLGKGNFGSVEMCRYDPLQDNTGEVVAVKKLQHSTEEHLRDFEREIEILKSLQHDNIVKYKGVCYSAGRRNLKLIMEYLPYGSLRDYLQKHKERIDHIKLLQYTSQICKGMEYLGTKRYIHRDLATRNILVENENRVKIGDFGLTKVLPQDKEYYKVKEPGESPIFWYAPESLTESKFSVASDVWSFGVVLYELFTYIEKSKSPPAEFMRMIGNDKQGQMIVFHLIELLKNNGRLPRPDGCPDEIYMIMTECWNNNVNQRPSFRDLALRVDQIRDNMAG

SMILES | JAK 2 (pKi)
C=CC(=O)N1CCN(CCn2c(=O)ccc3cnc(Nc4ccc(N5CCN(S(=O)(=O)CCOC)CC5)cc4)nc32)[C@@H](CC)C1 [Example 191] | E (E represents a pKi value of 7 or below (Ki of 100 nM or above))
C=CC(=O)N1CCN(CCn2c(=O)ccc3cnc(Nc4ccc(N5CCN(C(=O)CCSC)CC5)cc4)nc32)[C@@H](CC)C1 [Example 192] | E (E represents a pKi value of 7 or below (Ki of 100 nM or above))
C=CC(=O)N1CCN(CCn2c(=O)ccc3cnc(Nc4ccc(N5CCN(C)CC5)cc4)nc32)[C@@H](CO)C1 [Example 193] | E (E represents a pKi value of 7 or below (Ki of 100 nM or above))
C=CC(=O)N1CCN(CCn2c(=O)ccc3cnc(Nc4cnn(Cc5ccccc5)c4)nc32)[C@@H](CC)C1 [Example 194] | E (E represents a pKi value of 7 or below (Ki of 100 nM or above))
C=CC(=O)N1CCN(CCn2c(=O)ccc3cnc(Nc4cnn(C5CCN(C)CC5)c4)nc32)[C@@H](CC)C1 [Example 196] | E (E represents a pKi value of 7 or below (Ki of 100 nM or above))
C=CC(=O)N1CCN(CCn2c(=O)ccc3cnc(Nc4cnn(C5CCOCC5)c4)nc32)[C@@H](CC)C1 [Example 197] | E (E represents a pKi value of 7 or below (Ki of 100 nM or above))

Molecular target: JAK3 (Homo sapiens (Human), UniProt P52333)
Assay: Biochemical JAK3 kinase assay (LanthaScreen)
Conditions: not given
How it was run: as §1

Sequence of JAK3 (P52333 whole entry): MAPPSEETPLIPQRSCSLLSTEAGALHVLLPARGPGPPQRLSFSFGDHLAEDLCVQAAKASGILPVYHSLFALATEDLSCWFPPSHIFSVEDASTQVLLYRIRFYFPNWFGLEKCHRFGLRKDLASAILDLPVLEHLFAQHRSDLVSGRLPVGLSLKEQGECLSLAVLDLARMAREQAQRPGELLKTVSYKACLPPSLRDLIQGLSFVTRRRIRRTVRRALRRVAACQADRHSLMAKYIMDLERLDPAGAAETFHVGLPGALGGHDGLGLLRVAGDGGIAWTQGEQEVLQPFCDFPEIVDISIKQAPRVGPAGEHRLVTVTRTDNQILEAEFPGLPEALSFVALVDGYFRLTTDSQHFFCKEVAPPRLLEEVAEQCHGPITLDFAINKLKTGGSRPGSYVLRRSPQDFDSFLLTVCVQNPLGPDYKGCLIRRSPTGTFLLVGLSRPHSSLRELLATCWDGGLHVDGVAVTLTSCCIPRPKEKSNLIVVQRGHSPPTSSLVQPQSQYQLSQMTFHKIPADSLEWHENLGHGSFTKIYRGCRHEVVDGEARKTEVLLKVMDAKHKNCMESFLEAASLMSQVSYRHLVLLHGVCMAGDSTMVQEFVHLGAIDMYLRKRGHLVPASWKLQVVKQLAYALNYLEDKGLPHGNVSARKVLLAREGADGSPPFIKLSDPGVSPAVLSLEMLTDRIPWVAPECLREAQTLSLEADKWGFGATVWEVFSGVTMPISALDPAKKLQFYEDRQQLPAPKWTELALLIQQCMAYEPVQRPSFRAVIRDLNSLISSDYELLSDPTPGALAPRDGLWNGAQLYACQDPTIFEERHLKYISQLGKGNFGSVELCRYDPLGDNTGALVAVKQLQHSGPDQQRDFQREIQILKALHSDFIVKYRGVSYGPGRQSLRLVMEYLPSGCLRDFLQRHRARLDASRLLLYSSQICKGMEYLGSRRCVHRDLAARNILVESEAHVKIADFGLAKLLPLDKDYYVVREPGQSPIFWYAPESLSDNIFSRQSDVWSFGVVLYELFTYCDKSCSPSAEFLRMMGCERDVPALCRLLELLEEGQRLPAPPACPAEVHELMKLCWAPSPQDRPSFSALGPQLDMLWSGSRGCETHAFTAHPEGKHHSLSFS

SMILES | JAK 3 (pKi)
C=CC(=O)N1CCN(CCn2c(=O)ccc3cnc(Nc4ccc(N5CCN(S(=O)(=O)CCOC)CC5)cc4)nc32)[C@@H](CC)C1 [Example 191] | A (A represents a pKi value≥10 (Ki≤0.1 nM))
C=CC(=O)N1CCN(CCn2c(=O)ccc3cnc(Nc4ccc(N5CCN(C(=O)CCSC)CC5)cc4)nc32)[C@@H](CC)C1 [Example 192] | B (B represents pKi value between 9 and 10 (Ki between 1 nM and 0.1 nM))
C=CC(=O)N1CCN(CCn2c(=O)ccc3cnc(Nc4ccc(N5CCN(C)CC5)cc4)nc32)[C@@H](CO)C1 [Example 193] | B (B represents pKi value between 9 and 10 (Ki between 1 nM and 0.1 nM))
C=CC(=O)N1CCN(CCn2c(=O)ccc3cnc(Nc4cnn(Cc5ccccc5)c4)nc32)[C@@H](CC)C1 [Example 194] | B (B represents pKi value between 9 and 10 (Ki between 1 nM and 0.1 nM))
C=CC(=O)N1CCN(CCn2c(=O)ccc3cnc(Nc4cnn(C5CCN(C)CC5)c4)nc32)[C@@H](CC)C1 [Example 196] | B (B represents pKi value between 9 and 10 (Ki between 1 nM and 0.1 nM))
C=CC(=O)N1CCN(CCn2c(=O)ccc3cnc(Nc4cnn(C5CCOCC5)c4)nc32)[C@@H](CC)C1 [Example 197] | B (B represents pKi value between 9 and 10 (Ki between 1 nM and 0.1 nM))

Same assay, conditions: selectivity JAK3 over JAK1, difference of pKi

SMILES | JAK3 (pKi)-JAK1 (pKi)
C=CC(=O)N1CCN(CCn2c(=O)ccc3cnc(Nc4ccc(N5CCN(S(=O)(=O)CCOC)CC5)cc4)nc32)[C@@H](CC)C1 [Example 191] | A (A represents a value of 3 or above)
C=CC(=O)N1CCN(CCn2c(=O)ccc3cnc(Nc4ccc(N5CCN(C(=O)CCSC)CC5)cc4)nc32)[C@@H](CC)C1 [Example 192] | A (A represents a value of 3 or above)
C=CC(=O)N1CCN(CCn2c(=O)ccc3cnc(Nc4ccc(N5CCN(C)CC5)cc4)nc32)[C@@H](CO)C1 [Example 193] | A (A represents a value of 3 or above)
C=CC(=O)N1CCN(CCn2c(=O)ccc3cnc(Nc4cnn(Cc5ccccc5)c4)nc32)[C@@H](CC)C1 [Example 194] | A (A represents a value of 3 or above)
C=CC(=O)N1CCN(CCn2c(=O)ccc3cnc(Nc4cnn(C5CCN(C)CC5)c4)nc32)[C@@H](CC)C1 [Example 196] | A (A represents a value of 3 or above)
C=CC(=O)N1CCN(CCn2c(=O)ccc3cnc(Nc4cnn(C5CCOCC5)c4)nc32)[C@@H](CC)C1 [Example 197] | A (A represents a value of 3 or above)

Test system: Caco-2 cell monolayers
Assay: Caco-2 permeation assay
Assay type: in vitro ADME
Conditions: 5 μM, A-B direction, with Verapamil (25 μM)
How it was run: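 Compounds tested at 5 μM in duplicate across Caco-2 monolayers, apical-to-basolateral, with 25 μM verapamil to block P-gp, at 37° C., 5% CO2. Apical and basal samples taken at 0 and 120 min, analysed by LC-MS/MS; Papp (cm/sec) calculated as dQ/(dt×Area×concentration).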

SMILES | Caco Kp
C=CC(=O)N1CCN(CCn2c(=O)ccc3cnc(Nc4ccc(N5CCN(S(=O)(=O)CCOC)CC5)cc4)nc32)[C@@H](CC)C1 [Example 191] | B (B represents a value between 5×10^−6 and 10×10^−6 cm/sec)
C=CC(=O)N1CCN(CCn2c(=O)ccc3cnc(Nc4ccc(N5CCN(C(=O)CCSC)CC5)cc4)nc32)[C@@H](CC)C1 [Example 192] | C (C represents a value between 10×10^−6 and 30×10^−6 cm/sec)
C=CC(=O)N1CCN(CCn2c(=O)ccc3cnc(Nc4ccc(N5CCN(C)CC5)cc4)nc32)[C@@H](CO)C1 [Example 193] | A (A represents a value below 5×10^−6 cm/sec)
C=CC(=O)N1CCN(CCn2c(=O)ccc3cnc(Nc4cnn(Cc5ccccc5)c4)nc32)[C@@H](CC)C1 [Example 194] | C (C represents a value between 10×10^−6 and 30×10^−6 cm/sec)
C=CC(=O)N1CCN(CCn2c(=O)ccc3cnc(Nc4cnn(C5CCN(C)CC5)c4)nc32)[C@@H](CC)C1 [Example 196] | A (A represents a value below 5×10^−6 cm/sec)
C=CC(=O)N1CCN(CCn2c(=O)ccc3cnc(Nc4cnn(C5CCOCC5)c4)nc32)[C@@H](CC)C1 [Example 197] | A (A represents a value below 5×10^−6 cm/sec)

Molecular target: Tyk2 (Homo sapiens (Human), UniProt P29597)
Assay: Biochemical Tyk2 kinase assay (LanthaScreen)
Conditions: not given
How it was run: as §1

Sequence of Tyk2 (P29597 whole entry): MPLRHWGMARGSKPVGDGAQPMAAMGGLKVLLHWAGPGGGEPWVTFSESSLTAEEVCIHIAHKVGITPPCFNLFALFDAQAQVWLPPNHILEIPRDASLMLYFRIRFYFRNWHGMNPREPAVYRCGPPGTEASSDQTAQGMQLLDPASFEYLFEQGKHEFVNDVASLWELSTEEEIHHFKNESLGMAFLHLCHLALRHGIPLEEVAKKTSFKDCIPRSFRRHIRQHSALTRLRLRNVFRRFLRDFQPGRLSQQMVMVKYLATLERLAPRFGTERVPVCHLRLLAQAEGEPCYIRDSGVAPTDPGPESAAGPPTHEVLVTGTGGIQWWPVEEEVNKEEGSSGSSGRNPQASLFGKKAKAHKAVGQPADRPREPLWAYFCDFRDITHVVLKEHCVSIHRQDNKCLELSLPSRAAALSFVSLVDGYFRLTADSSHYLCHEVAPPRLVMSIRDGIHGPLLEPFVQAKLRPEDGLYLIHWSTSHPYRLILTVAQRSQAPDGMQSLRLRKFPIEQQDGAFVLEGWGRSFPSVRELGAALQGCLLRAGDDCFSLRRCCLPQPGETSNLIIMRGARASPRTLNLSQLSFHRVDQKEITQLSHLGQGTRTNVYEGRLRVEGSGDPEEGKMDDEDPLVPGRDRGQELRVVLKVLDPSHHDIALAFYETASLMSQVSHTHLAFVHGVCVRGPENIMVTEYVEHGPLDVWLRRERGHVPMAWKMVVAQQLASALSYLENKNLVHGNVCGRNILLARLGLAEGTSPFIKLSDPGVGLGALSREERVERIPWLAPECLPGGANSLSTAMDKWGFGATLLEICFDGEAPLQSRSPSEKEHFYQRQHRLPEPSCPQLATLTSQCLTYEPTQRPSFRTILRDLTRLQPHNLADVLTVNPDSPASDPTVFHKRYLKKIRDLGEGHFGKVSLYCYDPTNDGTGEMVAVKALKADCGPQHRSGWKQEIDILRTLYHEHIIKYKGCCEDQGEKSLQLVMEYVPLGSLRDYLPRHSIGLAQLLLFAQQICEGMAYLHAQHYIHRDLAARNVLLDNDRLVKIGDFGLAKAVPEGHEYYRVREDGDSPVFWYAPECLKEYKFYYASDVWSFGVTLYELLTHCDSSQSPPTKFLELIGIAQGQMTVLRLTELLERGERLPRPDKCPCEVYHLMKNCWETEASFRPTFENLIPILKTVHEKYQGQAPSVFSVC

SMILES | Tyk 2 (pKi)
C=CC(=O)N1CCN(CCn2c(=O)ccc3cnc(Nc4ccc(N5CCN(S(=O)(=O)CCOC)CC5)cc4)nc32)[C@@H](CC)C1 [Example 191] | E (E represents a pKi value of 7 or below (Ki of 100 nM or above))
C=CC(=O)N1CCN(CCn2c(=O)ccc3cnc(Nc4ccc(N5CCN(C(=O)CCSC)CC5)cc4)nc32)[C@@H](CC)C1 [Example 192] | E (E represents a pKi value of 7 or below (Ki of 100 nM or above))
C=CC(=O)N1CCN(CCn2c(=O)ccc3cnc(Nc4ccc(N5CCN(C)CC5)cc4)nc32)[C@@H](CO)C1 [Example 193] | E (E represents a pKi value of 7 or below (Ki of 100 nM or above))
C=CC(=O)N1CCN(CCn2c(=O)ccc3cnc(Nc4cnn(Cc5ccccc5)c4)nc32)[C@@H](CC)C1 [Example 194] | E (E represents a pKi value of 7 or below (Ki of 100 nM or above))
C=CC(=O)N1CCN(CCn2c(=O)ccc3cnc(Nc4cnn(C5CCN(C)CC5)c4)nc32)[C@@H](CC)C1 [Example 196] | E (E represents a pKi value of 7 or below (Ki of 100 nM or above))
C=CC(=O)N1CCN(CCn2c(=O)ccc3cnc(Nc4cnn(C5CCOCC5)c4)nc32)[C@@H](CC)C1 [Example 197] | E (E represents a pKi value of 7 or below (Ki of 100 nM or above))

Molecular target: JAK1 (Homo sapiens (Human), UniProt P23458)
Assay: Biochemical JAK1 kinase assay (LanthaScreen)
Conditions: not given
How it was run: as §1

Sequence of JAK1 (P23458 whole entry): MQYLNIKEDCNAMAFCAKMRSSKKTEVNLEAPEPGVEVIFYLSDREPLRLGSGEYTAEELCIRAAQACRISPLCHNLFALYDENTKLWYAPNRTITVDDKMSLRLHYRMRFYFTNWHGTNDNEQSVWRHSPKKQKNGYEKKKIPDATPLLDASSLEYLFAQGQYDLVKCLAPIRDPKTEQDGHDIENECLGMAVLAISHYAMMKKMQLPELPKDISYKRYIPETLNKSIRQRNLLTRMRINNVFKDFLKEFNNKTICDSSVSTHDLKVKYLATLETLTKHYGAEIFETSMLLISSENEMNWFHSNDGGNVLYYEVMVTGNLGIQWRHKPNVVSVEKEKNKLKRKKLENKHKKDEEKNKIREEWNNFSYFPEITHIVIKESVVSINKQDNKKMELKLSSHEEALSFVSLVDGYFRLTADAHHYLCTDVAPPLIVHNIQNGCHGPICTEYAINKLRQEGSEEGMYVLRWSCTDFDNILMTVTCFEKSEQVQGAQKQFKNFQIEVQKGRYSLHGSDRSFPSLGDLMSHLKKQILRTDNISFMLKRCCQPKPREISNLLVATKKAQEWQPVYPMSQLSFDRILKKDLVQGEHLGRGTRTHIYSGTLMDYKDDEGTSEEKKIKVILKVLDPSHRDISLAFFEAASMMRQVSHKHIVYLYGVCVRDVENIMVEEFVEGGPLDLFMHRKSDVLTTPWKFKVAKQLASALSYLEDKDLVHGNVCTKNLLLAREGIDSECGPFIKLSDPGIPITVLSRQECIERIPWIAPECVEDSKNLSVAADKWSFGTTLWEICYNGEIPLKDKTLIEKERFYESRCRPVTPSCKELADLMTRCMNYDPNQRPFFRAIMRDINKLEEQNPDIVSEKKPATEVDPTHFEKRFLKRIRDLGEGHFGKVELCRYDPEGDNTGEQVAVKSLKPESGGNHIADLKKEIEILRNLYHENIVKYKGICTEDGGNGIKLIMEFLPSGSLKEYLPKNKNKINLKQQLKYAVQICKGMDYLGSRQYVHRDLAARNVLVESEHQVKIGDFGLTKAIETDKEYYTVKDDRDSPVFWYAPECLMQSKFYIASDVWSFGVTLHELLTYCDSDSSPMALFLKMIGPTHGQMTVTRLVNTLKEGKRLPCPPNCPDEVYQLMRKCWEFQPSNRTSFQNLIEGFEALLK

SMILES | JAK 1 (pKi)
C=CC(=O)N1CCN(CCn2c(=O)ccc3cnc(Nc4ccc(N5CCN(S(=O)(=O)CCOC)CC5)cc4)nc32)[C@@H](CC)C1 [Example 191] | E (E represents a pKi value of 7 or below (Ki of 100 nM or above))
C=CC(=O)N1CCN(CCn2c(=O)ccc3cnc(Nc4ccc(N5CCN(C(=O)CCSC)CC5)cc4)nc32)[C@@H](CC)C1 [Example 192] | E (E represents a pKi value of 7 or below (Ki of 100 nM or above))
C=CC(=O)N1CCN(CCn2c(=O)ccc3cnc(Nc4ccc(N5CCN(C)CC5)cc4)nc32)[C@@H](CO)C1 [Example 193] | E (E represents a pKi value of 7 or below (Ki of 100 nM or above))
C=CC(=O)N1CCN(CCn2c(=O)ccc3cnc(Nc4cnn(Cc5ccccc5)c4)nc32)[C@@H](CC)C1 [Example 194] | E (E represents a pKi value of 7 or below (Ki of 100 nM or above))
C=CC(=O)N1CCN(CCn2c(=O)ccc3cnc(Nc4cnn(C5CCN(C)CC5)c4)nc32)[C@@H](CC)C1 [Example 196] | E (E represents a pKi value of 7 or below (Ki of 100 nM or above))
C=CC(=O)N1CCN(CCn2c(=O)ccc3cnc(Nc4cnn(C5CCOCC5)c4)nc32)[C@@H](CC)C1 [Example 197] | E (E represents a pKi value of 7 or below (Ki of 100 nM or above))
